According to patent US12655160B2, “KRAS G12D inhibitors” (Mirati Therapeutics, Inc., priority 2020, dated 2026):
pIC50, pKd: −log10 of the molar value. Like-named read-outs stand apart in the source and are kept apart here.

Key:
[1] = system: KRas G12D-mediated Phosphorylation of ERK; assay: Inhibition of KRas G12D-mediated Phosphorylation of ERK in AGS cells; format: cell-based; conditions: Homo sapiens
Description: AGS cells (ATCC CRL-1739) expressing G12D were grown in DMEM medium supplemented with 10% fetal bovine serum, 10 mM HEPES, and Penicillin/Streptomycin. Cells were plated in tissue culture treated 96 well plates at a density of 40,000 cells/well and allowed to attach for 12-14 hours. Diluted compounds were then added in a final concentration of 0.5% DMSO. After 3 hours, the medium was removed, 150 μl of 4.0% formaldehyde was added and the plates incubated at room temperature for 20 minutes. The plates were washed with PBS, and permeabilized with 150 μL of ice cold 100% methanol for 10 minutes. Non-specific antibody binding to the plates was blocked using 100 μL Licor blocking buffer (Li-Cor Biotechnology, Lincoln NE) for 1 hour at room temperature.
The amount of phospho-ERK was determined using an antibody specific for the phosphorylated form of ERK and compared to the amount of GAPDH. Primary antibodies used for the detection were added as follows: Phospho-ERK(Cell Signaling cs-9101) diluted 1:500 and GAPDH (Millipore MAB374) diluted 1:5000 in Licor block+0.05% Tween 20. The plates were incubated for 2 hours at room temperature. The plates were washed with PBS+0.05% Tween 20.
Secondary antibodies used to visualize primary antibodies were added as follows: Anti-rabbit-680 diluted 1:1000 and Anti-mouse-800 diluted 1:1000 both in Licor block+0.05% Tween20, and were incubated for 1 hour at room temperature. The plates were washed with PBS+0.05% Tween 20. A 100 μl aliquot of PBS was added to each well and the plates were read on a Li-Cor Odyssey CLX plate reader.
The phospho-ERK(Thr202/Tyr204 signal was normalized to the GAPDH signal for each well and percent of DMSO control values were calculated. IC50 values were generated using a 4-parameter fit of the dose response curve

[2] = target: T1, KRas G12D (Homo sapiens, UniProt P01116, G12D); assay: KRas G12D Binding Assay (TR-FRET displacement of labeled tracer); set-up: corresponding to amino acids 1:169, produced at Array BioPharma Inc; biotin (biotinylated); conditions: TR-FRET displacement of Cy5 labelled tracer, Biotinylated GDP-loaded KRAS G12D (amino acids 1:169), 60 minute incubation at 22° C.
Description: This Example illustrates that exemplary compounds of the present invention bind to KRas G12D and are capable of displacing a labeled tracer ligand occupying the KRas G12D binding site. The ability of a compound to bind to KRAS G12D was measured using a TR-FRET displacement assay. Biotinylated GDP-loaded recombinant human KRAS G12D (corresponding to amino acids 1:169, produced at Array BioPharma Inc.) was incubated with a custom-made Cy5 labelled tracer, europium labelled streptavidin and compound (2% DMSO final) in buffer (50 mM HEPES [pH 7.5], 5 mM MgCl2, 0.005% Tween-20 & 1 mM DTT). After a 60 minute incubation at 22° C., the reaction was measured using a PerkinElmer EnVision multimode plate reader via TR-FRET dual wavelength detection, and the percent of control (POC) calculated using a ratiometric emission factor. […] The POC values were fit to a 4-parameter logistic curve and the IC50 value was determined as the concentration where the curve crosses 50 POC.
Target sequence in this assay (P01116 1-169 isoform P01116-2 G12D): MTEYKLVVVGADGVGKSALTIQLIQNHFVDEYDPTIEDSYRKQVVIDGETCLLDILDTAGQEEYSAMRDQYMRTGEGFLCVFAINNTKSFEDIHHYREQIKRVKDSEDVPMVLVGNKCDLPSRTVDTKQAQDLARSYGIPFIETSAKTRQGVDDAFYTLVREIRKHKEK

[3] = target: T1, KRas G12D; assay: KRas G12D Surface Plasmon Resonance (SPR) Binding Assay; set-up: Avidin-tag (so in the source); conditions: Biacore T200, Biotinylated Avidin-tagged KRAS protein on SA chip, 20 C, 1:1 binding model
Description: This Example illustrates that exemplary compounds of the present invention bind to KRas G12D as measured by surface plasmon resonance (SPR). Briefly, 1 L of 1.05×HBS-Mg buffer (262.5 mM BioUltra Hepes, pH 7.5, 157.5 mM NaCl, 105 mM MgCl2, 0.525 mM TCEP, 0.0305% Brij-35) was prepared and filter sterilized using a 0.22 μm bottle top filter. Approximately 50 mL of 1.05×HBS-Mg buffer was removed and saved for future dilutions. A 50 mL aliquot of DMSO (Sigma Aldrich DMSO Lot. #SHBK2079) was added and continued to stir for 10 minutes, creating the final 1.0×HBS-Mg buffer (250 mM BioUltra Hepes pH 7.5, 150 mM NaCl, 100 mM MgCl2, 0.5 mM TCEP, 0.03% Brij-35). Biacore T200 instrument was primed using 1.0×HBS-Mg buffer before docking a GE Streptavidin (SA) chip and then primed two additional times prior to beginning the immobilization step. All immobilized protein mixtures were created using 3-5 mg/mL Biotinylated Avidin-tagged KRAS protein using the following immobilization settings: SA chip type, 1 flow cells per cycle, 720 second contact time, and 5 μL/min flow rate. Normalization of the detector was also performed during the immobilization step using the GE BiaNormalize solution. All compounds were diluted to 10 mM in 100% DMSO prior to being diluted 20× in 1.05× buffer. Another 10λ dilution was created using 1.0× buffer prior to performing a series of 3× dilutions to create a compound concentration curve using the following assay settings: 20 C analysis temperature, General Settings=10 Hz data collection rate and multi-detection; Assay Steps=all set to LMW kinetics; Cycle Types=LMW kinetics (60 s contact time, 120 s dissociation time, 100 μL/min flow rate, extra wash after injection with 50% DMSO, flow path 1,2,3,4); Flow path detection=2-1, 4-3). Data evaluation was performed using the Biacore T200 Evaluation software and data fit to 1:1 binding model.
Target sequence in this assay (P01116 1-188 isoform P01116-2 G12D): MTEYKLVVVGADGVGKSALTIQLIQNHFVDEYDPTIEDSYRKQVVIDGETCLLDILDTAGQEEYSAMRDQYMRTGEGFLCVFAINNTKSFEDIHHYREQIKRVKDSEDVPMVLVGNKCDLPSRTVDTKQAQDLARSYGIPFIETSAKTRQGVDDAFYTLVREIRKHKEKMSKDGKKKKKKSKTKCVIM

[4] = AGS cells expressing G12D, 3 hours, phospho-ERK signal normalized to GAPDH, read-out: IC50

Row | Compound | pIC50 [1, 4] | pIC50 [2] | pIC50 ([1]; AGS, 3 h) | pKd [3]
1 | CCc1cccc2cc(O)cc(-c3ncc4c(NCC5(N(C)C)CCC5)nc(OC[C@@]56CCCN5[C@H](COC(=O)NC)CC6)nc4c3F)c12 (racemic) [Example 44] | 6.66 | 9.15 |  | 
2 | CN(C)C1(CNc2nc(OC[C@@]34CCCN3C[C@H](F)C4)nc3c(F)c(-c4cc(O)cc5ccccc45)ncc23)CCC1 [Example 1, 4-(4-(((1-(dimethylamino)cyclobutyl)methyl)amino)-8-fluoro-2-(((2R,7aS)-2-fluorotetrahydro-1H-pyrrolizin-7a(5H)-yl)methoxy)pyrido[4,3-d]pyrimidin-7-yl)naphthalen-2-ol] |  | 7.71 | 6.16 | 7.83
3 | CN[C@H]1C[C@@H](Nc2nc(OCC34CCCN3CCC4)nc3c(F)c(-c4cc(O)cc5ccccc45)ncc23)C1 [Example 17, 4-(8-fluoro-4-(((1s,3s)-3-(methylamino)cyclobutyl)amino)-2-((tetrahydro-1H-pyrrolizin-7a(5H)-yl)methoxy)pyrido[4,3-d]pyrimidin-7-yl)naphthalen-2-ol bis(2,2,2-trifluoroacetate)] | < 4.78 | 7.09 |  | 
4 | Oc1cc(-c2ncc3c(NC4CNC4)nc(OCC45CCCN4CCC5)nc3c2F)c2ccccc2c1 [Example 18, 4-(4-(azetidin-3-ylamino)-8-fluoro-2-((tetrahydro-1H-pyrrolizin-7a(5H)-yl)methoxy)pyrido[4,3-d]pyrimidin-7-yl)naphthalen-2-ol] | < 4.78 | 7.33 |  | 
5 | C#Cc1cccc2cccc(-c3ncc4c(NCC5(N(C)C)CCC5)nc(OC[C@@]56CCCN5C[C@H](F)C6)nc4c3F)c12 [Example 20, N-((1-(dimethylamino)cyclobutyl)methyl)-7-(8-ethynylnaphthalen-1-yl)-8-fluoro-2-(((2R,7aS)-2-fluorotetrahydro-1H-pyrrolizin-7a(5H)-yl)methoxy)pyrido[4,3-d]pyrimidin-4-amine bis(2,2,2-trifluoroacetate)] | 5.60 | 7.66 |  | 
6 | CCc1cccc2cccc(-c3ncc4c(NCC5(N(C)C)CCC5)nc(OC[C@@]56CCCN5C[C@H](F)C6)nc4c3F)c12 [Example 21, N-((1-(dimethylamino)cyclobutyl)methyl)-7-(8-ethylnaphthalen-1-yl)-8-fluoro-2-(((2R,7aS)-2-fluorotetrahydro-1H-pyrrolizin-7a(5H)-yl)methoxy)pyrido[4,3-d]pyrimidin-4-amine] | < 4.78 | 7.23 |  | 
7 | NC1(CNc2nc(OC[C@@]34CCCN3C[C@H](F)C4)nc3c(F)c(-c4cc(O)cc5ccccc45)ncc23)CCC1 [Example 29, 4-(4-(((1-aminocyclobutyl)methyl)amino)-8-fluoro-2-(((2R,7aS)-2-fluorotetrahydro-1H-pyrrolizin-7a(5H)-yl)methoxy)pyrido[4,3-d]pyrimidin-7-yl)naphthalen-2-ol bis(2,2,2-trifluoroacetate)] | 5.81 | 7.20 |  | 
8 | CCc1cccc2cc(O)cc(-c3ncc4c(NCC5(N(C)C)CCC5)nc(OC[C@]56CCCN5[C@@H](COC(=O)N(C)C)CC6)nc4c3F)c12 [Example 43, ((3R,7aR)-7a-(((4-(((1-(dimethylamino)cyclobutyl)methyl)amino)-7-(8-ethyl-3-hydroxynaphthalen-1-yl)-8-fluoropyrido[4,3-d]pyrimidin-2-yl)oxy)methyl)hexahydro-1H-pyrrolizin-3-yl)methyl dimethylcarbamate] | 7.27 | 8.96 |  | 
9 | C#Cc1c(F)ccc2cc(O)cc(-c3ncc4c(NCC5(N(C)C)CCC5)nc(OC[C@]56CCCN5[C@@H](COC(=O)N(C)C)CC6)nc4c3F)c12 [Example 45, ((3R,7aR)-7a-(((4-(((1-(dimethylamino)cyclobutyl)methyl)amino)-7-(8-ethynyl-7-fluoro-3-hydroxynaphthalen-1-yl)-8-fluoropyrido[4,3-d]pyrimidin-2-yl)oxy)methyl)hexahydro-1H-pyrrolizin-3-yl)methyl dimethylcarbamate] | 7.42 | 9.40 |  | 
10 | CCc1c(F)ccc2cc(O)cc(-c3ncc4c(NCC5(N(C)C)CCC5)nc(OC[C@]56CCCN5[C@@H](COC(=O)N(C)C)CC6)nc4c3F)c12 [Example 46, ((3R,7aR)-7a-(((4-(((1-(dimethylamino)cyclobutyl)methyl)amino)-7-(8-ethyl-7-fluoro-3-hydroxynaphthalen-1-yl)-8-fluoropyrido[4,3-d]pyrimidin-2-yl)oxy)methyl)hexahydro-1H-pyrrolizin-3-yl)methyl dimethylcarbamate] | 7.41 | 9.15 |  | 
11 | CN(C)C1(CNc2nc(OC[C@]34CCCN3[C@@H](COC(=O)N3CCCCC3)CC4)nc3c(F)c(-c4cccc5cccc(Cl)c45)ncc23)CCC1 [Example 50, ((3R,7aR)-7a-(((7-(8-chloronaphthalen-1-yl)-4-(((1-(dimethylamino)cyclobutyl)methyl)amino)-8-fluoropyrido[4,3-d]pyrimidin-2-yl)oxy)methyl)hexahydro-1H-pyrrolizin-3-yl)methyl piperidine-1-carboxylate] | 4.97 | 7.05 |  | 
12 | CN(C)C(=O)OC[C@H]1CC[C@@]2(COc3nc(NCC4(N(C)C)CCC4)c4cnc(-c5cccc6cccc(Cl)c56)c(F)c4n3)CCCN12 [Example 51, ((3R,7aR)-7a-(((7-(8-chloronaphthalen-1-yl)-4-(((1-(dimethylamino)cyclobutyl)methyl)amino)-8-fluoropyrido[4,3-d]pyrimidin-2-yl)oxy)methyl)hexahydro-1H-pyrrolizin-3-yl)methyl dimethylcarbamate] | < 4.78 | 6.99 |  | 
13 | CN(C)C1(CNc2nc(OCC34CCCN3CCC4)nc3c(F)c(-c4cccc5cccc(Cl)c45)ncc23)CCC1 [Example 54, 7-(8-chloronaphthalen-1-yl)-N-((1-(dimethylamino)cyclobutyl)methyl)-8-fluoro-2-((tetrahydro-1H-pyrrolizin-7a(5H)-yl)methoxy)pyrido[4,3-d]pyrimidin-4-amine] | < 4.78 | 7.10 |  | 
14 | C#Cc1c(F)ccc2cccc(-c3ncc4c(NCC5(N(C)C)CCC5)nc(OCC56CCCN5CCC6)nc4c3F)c12 [Example 56, N-((1-(dimethylamino)cyclobutyl)methyl)-7-(8-ethynyl-7-fluoronaphthalen-1-yl)-8-fluoro-2-((hexahydro-1H-pyrrolizin-7a-yl)methoxy)pyrido[4,3-d]pyrimidin-4-amine] | 6.46 | 8.59 |  | 
